Assay results reported in BindingDB's records for doi:10.1016/j.bmcl.2010.04.142 (Glaxosmithkline, 2010).

Experiments:
[1] = Antagonist activity at CCR2 in human THP1 cells assessed as inhibition of CCL2-induced chemotaxis in presence of 1% fetal bovine serum
[2] = Antagonist activity at CCR2 in human THP1 cells assessed as inhibition of CCL2-induced chemotaxis in presence of 1% human serum

Ki [1] [nM]	Ki [2] [nM]	SMILES
398	398	O=C(O)c1ccccc1Oc1ccccc1NS(=O)(=O)c1ccc(Cl)cc1
158	10000	O=C(O)c1c(F)cccc1Oc1ccc(C(F)(F)F)cc1NS(=O)(=O)c1ccc(Cl)cc1
63.1	12600	O=C(O)c1ccccc1Oc1c(F)cc(C(F)(F)F)cc1NS(=O)(=O)c1ccc(Cl)cc1
